“Also recorded” adds a separate entry of the source.
What was measured:
[1] = tested on: SK-N-BE(2)-C neuroblastoma cells; assay: Matrigel cell invasion assay; type: cell-based, human; conditions: FIG. 39A
Protocol: SK-N-BE(2)C neuroblastoma cells were seeded at 5×10^4 cells per well density in a 24-well plate. Cells were treated for five days with compounds or with DMSO control in Dulbecco's Modified Eagle Medium containing 10% fetal bovine serum, penicillin and streptomycin, in quadruplicate. On Day five, cells were changed to serum-free medium with the same compound concentrations as during the 5-day treatment, and 50,000 cells were seeded on top of a Corning BioCoat Matrigel Invasion Chamber (cat #354480). Medium with 20% FBS was added as chemoattractant to the bottom of the well. Invasion assay was performed per manufacturer instructions. After 48 h, non-invading cells were removed by scrubbing with a cotton tip swab. Cells that remained inside the matrix were stained with 1% crystal violet dye and counted by eye. Percentage of invasive cells was calculated relative to DMSO control.

[2] = target: T1, Sin3 occupancy (Saccharomyces cerevisiae, UniProt P22579); assay: ChIP-qPCR and ChIP-seq of Sin3-(HA)3 in yeast; type: cell-based, S. cerevisiae; conditions: for Sin3 occupancy at URS-URA3 and INO1 (ChIP-qPCR) / number of genes with decreased Sin3 occupancy (ChIP-seq): 400 μM; for Sin3 occupancy at URS-URA3 and INO1 (ChIP-qPCR): 2 h; for number of genes with decreased Sin3 occupancy (ChIP-seq) / number of genes with reduced Sin3 occupancy (ChIP-seq): of 545 Sin3-occupied genes; for number of genes with decreased Sin3 occupancy (ChIP-seq): FIG. 5D; for number of genes with reduced Sin3 occupancy (ChIP-seq): FIG. 5K
T1 construct: expressed in transfected cells; host or cells: S. cerevisiae JOY116 (sin3Δ) transformed with YEplac181-Sin3-(HA)3
T1 sequence (P22579 whole entry): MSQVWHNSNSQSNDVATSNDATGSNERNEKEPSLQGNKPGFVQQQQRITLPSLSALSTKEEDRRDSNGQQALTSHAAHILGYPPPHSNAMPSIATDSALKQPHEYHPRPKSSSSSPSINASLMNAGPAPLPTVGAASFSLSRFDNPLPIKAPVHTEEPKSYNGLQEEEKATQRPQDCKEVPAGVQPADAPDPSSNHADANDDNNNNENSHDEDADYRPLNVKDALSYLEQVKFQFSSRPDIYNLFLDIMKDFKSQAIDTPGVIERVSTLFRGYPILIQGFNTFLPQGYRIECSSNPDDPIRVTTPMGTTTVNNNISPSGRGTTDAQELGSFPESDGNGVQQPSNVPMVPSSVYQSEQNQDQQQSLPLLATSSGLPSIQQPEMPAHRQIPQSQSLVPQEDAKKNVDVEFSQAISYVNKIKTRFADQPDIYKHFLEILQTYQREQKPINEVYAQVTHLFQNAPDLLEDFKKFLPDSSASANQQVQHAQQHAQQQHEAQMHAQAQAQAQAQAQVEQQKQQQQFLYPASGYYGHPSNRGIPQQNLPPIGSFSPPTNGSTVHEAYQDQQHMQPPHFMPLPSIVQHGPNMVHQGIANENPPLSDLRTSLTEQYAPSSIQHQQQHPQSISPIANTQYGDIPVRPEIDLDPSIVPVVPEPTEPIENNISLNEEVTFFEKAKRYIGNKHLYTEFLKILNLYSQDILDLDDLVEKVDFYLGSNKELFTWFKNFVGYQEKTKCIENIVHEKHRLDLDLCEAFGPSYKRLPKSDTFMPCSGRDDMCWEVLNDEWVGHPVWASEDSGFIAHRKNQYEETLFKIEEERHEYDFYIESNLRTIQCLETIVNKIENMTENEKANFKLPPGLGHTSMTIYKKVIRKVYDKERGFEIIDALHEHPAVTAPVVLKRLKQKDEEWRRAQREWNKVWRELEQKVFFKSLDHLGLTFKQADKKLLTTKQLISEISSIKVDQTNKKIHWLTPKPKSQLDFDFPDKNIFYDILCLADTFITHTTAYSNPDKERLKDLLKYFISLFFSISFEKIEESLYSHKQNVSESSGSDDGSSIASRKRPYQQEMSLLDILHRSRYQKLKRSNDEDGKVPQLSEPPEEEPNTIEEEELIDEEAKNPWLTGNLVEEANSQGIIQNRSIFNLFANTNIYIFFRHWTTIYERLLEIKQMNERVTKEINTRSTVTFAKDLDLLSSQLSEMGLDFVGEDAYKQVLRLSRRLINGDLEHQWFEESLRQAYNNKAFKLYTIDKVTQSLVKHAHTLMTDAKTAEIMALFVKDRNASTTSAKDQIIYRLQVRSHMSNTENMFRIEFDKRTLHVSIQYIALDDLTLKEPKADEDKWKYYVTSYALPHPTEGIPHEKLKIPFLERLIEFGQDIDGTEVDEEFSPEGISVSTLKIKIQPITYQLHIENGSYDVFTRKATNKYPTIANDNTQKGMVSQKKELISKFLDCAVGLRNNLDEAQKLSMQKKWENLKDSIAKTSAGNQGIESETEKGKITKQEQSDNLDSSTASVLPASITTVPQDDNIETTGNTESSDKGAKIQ
Protocol: ChIP procedures in yeast were adapted from previously established protocols, with minor modifications [Sertil et al 2007, Jezek et al 2017, Barski et al 2007]. Briefly, yeast S. cerevisiae JOY116 (sin3Δ) cells transformed with the YEplac181-Sin3-(HA)3 plasmid were cultured in liquid SC-L, until OD600 nm reached ˜0.7. […] (200 rpm). After 2 h of incubation, cells were treated with 1% formaldehyde for 20 min at 4° C. for cross-linking. Then, 125 mM glycine was applied for 5 min at room temperature to quench cross-linking. Yeast cells were centrifuged (10 min at 1,000 g), and the resulting pellets were washed twice with 50 mL ice-cold phosphate-buffered saline (PBS). Yeast pellets were resuspended in 500 μL of ChIP lysis buffer (50 mM HEPES-KOH pH 7.5, 140 mM NaCl, 1 mM EDTA, 1% Triton X-100, 0.1% sodium deoxycholate, 0.1% SDS, and yeast protease inhibitors). After that, 500 μL of the yeast suspensions in lysis buffer were mixed with 500 μL of zirconia beads in a screw-top microcentrifuge tube. For cell lysis, the tubes were vortexed at maximum speed for 15 min at 4° C. Cell lysates were collected by punching a hole on the bottom of the screw-cap tube, with a sterile needle, and centrifuging the lysates into new Eppendorf tubes. Then, 300 μL of lysates were added into 1.5 mL Bioruptor Pico microtubes with caps (Diagenode, cat #C30010016), and subsequent sonication was conducted with a Bioruptor Pico sonication device, in the following conditions: 30 s/3 cycles on, and 30 s/3 cycles off, at 4° C. The sonicated lysates were cleared by 30 min centrifugation at maximum speed at 4° C. The resulting cleared lysates, with sheared chromatin, were saved, snap freezed, and stored at −80° C. until use. Next, 10 μL cleared lysates were reverse-cross linked overnight, at 65° C., in the presence of proteinase K. Phenol-chloroform extractions and EtOH precipitations were then applied to purify the sheared DNA. DNA agarose gel running and DNA concentration measurements with a NanoDrop spectrophotometer were finally conducted to assess the size and yield of the sheared DNA, respectively.
For the pull-downs, 25 μg of sheared chromatin from each sample were diluted (1:10) in ice-cold dilution buffer (1% Triton X-100, 2 mM EDTA, 20 mM Tris-HCl pH 8, 150 mM NaCl, and yeast protease inhibitors), and mixed with 10 μg ChIP-grade anti-HA (Abcam, cat #ab9110), or isotype control anti-IgG (Abcam, cat #ab171870) antibodies. Then, 50 μL of pre-washed Dynabeads Protein G for Immunoprecipitation (ThermoFisher, cat #10003D) were added to each individual sample. Chromatin immunoprecipitation was performed by incubating samples at 4° C. overnight, under gentle shaking (300 rpm). The day after, the Dynabeads were washed three times with 1 mL ice-cold wash buffer (0.1% SDS, 1% Triton X-100, 2 mM EDTA, 20 mM Tris-HCl pH 8, 150 mM NaCl), and then once with 1 mL ice-cold final wash buffer (0.1% SDS, 1% Triton X-100, 2 mM EDTA pH 8, 20 mM Tris-HCl pH 8, 500 mM NaCl), using a magnetic rack. DNA was eluted with 120 μL elution buffer (1% SDS, 100 mM NaHCO3), by incubating samples at 30° C. for 15 min. For input, 10 μL of sheared cell lysates were added to 110 μL of elution buffer. Then, 4 μL proteinase K were added to the eluted DNA or inputs, and reverse-cross linking was achieved by incubating samples overnight at 65° C. After overnight incubation, phenol-chloroform extractions and EtOH precipitations were conducted to purify ChIP-DNA. The ChIP-DNA was eluted in a total volume of 200 μL ddH2O, and then used for ChIP-qPCR or ChIP-Seq. Briefly, for ChIP-qPCR, 4 μL of eluted ChIP-DNA were mixed with 5 μL of PowerUp SYBR Green master mix (Applied Biosystems, cat #A25743), and 1 μL of the primer mix (forward+reverse; 3 μM final concentration), for a total volume of 10 μL. Two technical replicates were generated for each DNA sample from three ChIP replicates. ChIP-DNA samples were then transferred into the 384-well skirted PCR plate (Applied Biosystems, cat #4343370). […]

[3] = tested on: Rpd3-sensitive acid phosphatase activity; assay: Yeast acid phosphatase plate assay; type: cell-based, S. cerevisiae; conditions: phosphate-rich (high Pi) medium
Protocol: The acid phosphatase plate assay was implemented as previously described [To et al 1973, Loewith et al 2001], with minor modifications. Cells were grown on high Pi medium (see above) for 2 days, at 30° C. A staining solution containing 2 mg/mL of 1-naphtyl phosphate (Sigma, N5602) and 4 mg/mL fast blue B salt (Sigma, D9805) was then prepared in 50 mM sodium acetate buffer pH 4.0±0.1, and maintained at 50° C. for ˜30 min before being filtered. Meanwhile, a solution of 10 mg/mL (1% weight/volume) ultra pure low melting point (LMP) agarose (Invitrogen, 15517-022) was prepared in 50 mM sodium acetate buffer pH 4.0±0.1, by microwaving the suspension until complete dissolution of the powder. The volume of the agarose solution was checked and readjusted with 50 mM sodium acetate buffer pH 4.0±0.1. The agarose solution was then mixed with the filtered staining solution by vortexing briefly, and the resulting suspension was kept at 50° C. for ˜15 min. The solid agar plate on which cells grew for 2 days were then gently overlaid with the agarose-containing staining solution, allowing its gelification on top of the cells. A red coloring started to appear ˜2 min after covering cells with the solution.

Compound	migration of neuroblastoma cells in the invasion assay [1]	Sin3 occupancy at URS-URA3 and INO1 (ChIP-qPCR) [2]	number of genes with decreased Sin3 occupancy (ChIP-seq) [2] [genes]	number of genes with reduced Sin3 occupancy (ChIP-seq) [2] [genes]	Rpd3-sensitive acid phosphatase activity [3]	Sin3 occupancy at INO1, IME2 and CAR1 (ChIP-Seq traces) ([2]; not at SPO3 or TRK2)
C[C@@H](NC(=O)c1c(O)n2ccccc2nc1=O)c1ccccc1 [E6R, 4-hydroxy-2-oxo-N—((R)-1-phenylethyl)-3,4-dihydro-2H-pyrido[, 2-a]pyrimidine-3-carboxamide]	significantly reduce	–	–	–	–	–
CC(/C=C/C(=O)NO)=C\[C@@H](C)C(=O)c1ccc(N(C)C)cc1 [TSA, trichostatin A]	significantly reduce	appeared to prevent recruitment of Sin3; also recorded: decreased occupancy	142	295	induced	–
CC(NC(=O)c1c(O)n2ccccc2nc1=O)c1ccccc1 (racemic) [E6]	–	significantly decreased; also recorded: decreased occupancy	360	450	opposite behavior	reduced

Source: US20240299393A1, “SMALL MOLECULE DISRUPTORS OF PROTEIN INTERACTIONS IN HISTONE DEACETYLASE COMPLEXES” (Dana-Farber Cancer Institute, Inc., priority 2021, published 2024)
